Results reported in US12152035B2, “Androgen receptor binding molecule and use thereof” (Industrial Technology Research Institute, priority 2020, dated 2024).

Assays:
[1] = test system: CWR22RV1 cells; experiment: Cytotoxicity assay (AlamarBlue, 72 hours); type: cell-based; conditions: 72 hours treatment, concentration not given
Experimental: (§1) Compound stock solutions of 10 mM were prepared with 100% DMSO and shaken for 10-15 seconds. The compound stock solutions were centrifuged at 12000 rpm (13523 rcf.) for 5 minutes and record the turbidity or precipitation state with a photo snapshot. The compound stock solutions were resuspended by shaking for 10-15 seconds, and serially diluted with 100% DMSO solution to make the compound concentration to 1000 μM, then to 100, 10, and 1 μM, and then 10-fold diluted with medium to 100, 10, 1, 0.1 μM (final 10% DMSO/medium) to complete compound test sample preparation. Compound treatment was performed by adding 10 μL of compound test sample to cells in each well of a 96-well plate (final 1% DMSO/medium).
(§2) Cells (CWR22Rv1 cells or VCaP cells) were cultured in RPMI-1640 medium supplemented with 10% fetal bovine serum, 10,000 U/mL penicillin and 10,000 μg/mL streptomycin. Cells were cultured at 37° C. in a humidified 5% CO2 incubator.
(§3) Cells were seeded in a 96-well plate (1×10^4 cells/well). 10 μL of the above compound test sample was added to each well of the 96-well plate on next day. After 72 hours of compound treatment, 10 μL of AlamaBlue reagent was added to each of 96 wells and incubated for 4 hours. The fluorescence value at Ex/Em=560/590 nm was read with a microplate reader, and the cytotoxicity (%) was calculated.
(§4) According to the above method, the compounds prepared above were subjected to cytotoxicity test with CWR22RV1 cells and VCaP cells.

[2] = test system: VCaP cells; experiment: Cytotoxicity assay (AlamarBlue, 72 hours); type: cell-based; conditions: 72 hours treatment, concentration not given
Experimental: as §1, §2, §3, §4

SMILES | Cytotoxicity, CWR22RV1 cells (cell viability %) [1] | Cytotoxicity, VCaP cells (cell viability %) [2]
Cc1ncsc1-c1ccc(CNC(=O)[C@@H]2C[C@H](O)CN2C(=O)[C@@H](NC(=O)C2CCC(C(=O)N3CCC(C#Cc4ccc(C5CCN(C6=Nn7c(nnc7C(F)(F)F)CC6)CC5)cc4)CC3)CC2)C(C)(C)C)cc1 (stereo in doubt) [Compound 34, 1-(3,3-dimethyl-2-(4-(4-((4-(1-(3-(trifluoromethyl)-7,8-dihydro-[1,2,4]triazolo[4,3-b]pyridazin-6-yl)piperidin-4-yl)phenyl)ethynyl)piperidine-1-carbonyl)cyclohexane-1-carboxamido)butanoyl)-4-hydroxy-N-(4-(4-methylthiazol-5-yl)benzyl)pyrrolidine-2-carboxamide] | + (60-80% : +) | +++ (<40% : +++)
Cc1ncsc1-c1ccc(CNC(=O)[C@@H]2C[C@H](O)CN2C(=O)[C@@H](NC(=O)COCCCOc2ccc(C3CCN(C4=Nn5c(nnc5C(F)(F)F)CC4)CC3)cc2)C(C)(C)C)cc1 [Compound 20, (2S,4S)-1-((S)-3,3-dimethyl-2-(2-(3-(4-(1-(3-(trifluoromethyl)-7,8-dihydro-[1,2,4]triazolo[4,3-b]pyridazin-6-yl)piperidin-4-yl)phenoxy)propoxy)acetamido)butanoyl)-4-hydroxy-N-(4-(4-methylthiazol-5-yl)benzyl)pyrrolidine-2-carboxamide] | +++ (<40% : +++) | ++ (40-60% : ++)
Cc1ncsc1-c1ccc(CNC(=O)[C@@H]2C[C@H](O)CN2C(=O)[C@@H](NC(=O)c2ccc(C(=O)N3CCC(C#Cc4ccc(C5CCN(C6=Nn7c(nnc7C(F)(F)F)CC6)CC5)cc4)CC3)cc2)C(C)(C)C)cc1 [Compound 33, 1-(3,3-dimethyl-2-(4-(4-((4-(1-(3-(trifluoromethyl)-7,8-dihydro-[1,2,4]triazolo[4,3-b]pyridazin-6-yl)piperidin-4-yl)phenyl)ethynyl)piperidine-1-carbonyl)benzamido)butanoyl)-4-hydroxy-N-(4-(4-methylthiazol-5-yl)benzyl)pyrrolidine-2-carboxamide] | − (<80% : −) | +++ (<40% : +++)
O=C1CCC(N2Cc3c(NC(=O)COCCCCCCOc4ccc(C5CCN(C6=Nn7c(nnc7C(F)(F)F)CC6)CC5)cc4)cccc3C2=O)C(=O)N1 (centres unmarked) [Compound 32, N-(2-(2,6-dioxopiperidin-3-yl)-1-oxoisoindolin-4-yl)-2-((6-(4-(1-(3-(trifluoromethyl)-7,8-dihydro-[1,2,4]triazolo[4,3-b]pyridazin-6-yl)piperidin-4-yl)phenoxy)hexyl)oxy)acetamide] | + (60-80% : +) | ++ (40-60% : ++)
